Laboratory results taken from the supplement of paper PMC10307832.

What was measured:
Assay in all cases: relative viability (nuclei count vs DMSO), 5 days (fraction); higher = more cells survive
LK-2 = system: LK-2
Outline: (§1)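 Five library-drug doses in √10 steps were combined with a fixed anchor-drug dose, or a single drug was given alone, by pin tool to lung cancer cell lines in 1536-well plates the day after seeding. Nuclei were stained and counted after 5 days. Relative viability is the nuclei count in treated wells over that in vehicle wells, taken as the median of duplicate plates.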

NCI-H520 = system: NCI-H520
Outline: as §1

NCI-H1355 = system: NCI-H1355
Outline: as §1

LCLC-103H = system: LCLC-103H
Outline: as §1

COR-L 105 = system: COR-L 105
Outline: as §1

IA-LM = system: IA-LM
Outline: as §1

NCI-H1648 = system: NCI-H1648
Outline: as §1

NCI-H522 = system: NCI-H522
Outline: as §1

SMILES	relative viability (LK-2; first compound 0.08 µM)	relative viability (LK-2; first compound 0.253 µM)	relative viability (LK-2; first compound 0.8 µM)	relative viability (LK-2; first compound 2.53 µM)	relative viability (LK-2; first compound 8 µM)	relative viability (NCI-H520; first compound 0.08 µM)	relative viability (NCI-H520; first compound 0.253 µM)	relative viability (NCI-H520; first compound 0.8 µM)	relative viability (NCI-H520; first compound 2.53 µM)	relative viability (NCI-H520; first compound 8 µM)	relative viability (NCI-H1355; first compound 0.08 µM)	relative viability (NCI-H1355; first compound 0.253 µM)	relative viability (NCI-H1355; first compound 0.8 µM)	relative viability (NCI-H1355; first compound 2.53 µM)	relative viability (NCI-H1355; first compound 8 µM)	relative viability (LCLC-103H; first compound 0.08 µM)	relative viability (LCLC-103H; first compound 0.253 µM)	relative viability (LCLC-103H; first compound 0.8 µM)	relative viability (LCLC-103H; first compound 2.53 µM)	relative viability (LCLC-103H; first compound 8 µM)	relative viability (COR-L 105; first compound 0.08 µM)	relative viability (COR-L 105; first compound 0.253 µM)	relative viability (COR-L 105; first compound 0.8 µM)	relative viability (COR-L 105; first compound 2.53 µM)	relative viability (COR-L 105; first compound 8 µM)	relative viability (IA-LM; first compound 0.253 µM)	relative viability (IA-LM; first compound 0.8 µM)	relative viability (IA-LM; first compound 2.53 µM)	relative viability (IA-LM; first compound 8 µM)	relative viability (NCI-H1648; first compound 0.253 µM)	relative viability (NCI-H1648; first compound 0.8 µM)	relative viability (NCI-H1648; first compound 8 µM)	relative viability (NCI-H522; first compound 0.08 µM)	relative viability (NCI-H522; first compound 0.253 µM)	relative viability (NCI-H522; first compound 0.8 µM)	relative viability (NCI-H522; first compound 2.53 µM)	relative viability (NCI-H522; first compound 8 µM)	relative viability (IA-LM; first compound 0.08 µM)	relative viability (NCI-H1648; first compound 0.08 µM)	relative viability (NCI-H1648; first compound 2.53 µM)
O=c1cc(-c2cccc3c2Sc2ccccc2S3)oc(N2CCOCC2)c1 + O=C(CCCCCCC(=O)Nc1ccccc1)NO [Vorinostat] (partner 1 µM)	0.261	0.327	0.369	0.287	0.358	0.704	0.856	0.741	0.787	0.648	0.628	0.709	0.526	0.654	0.584	0.757	0.814	0.66	0.727	0.864	0.782	0.828	0.751	0.795	1.1	1.31	0.966	0.863	1.08	0.468	0.65	0.457	0.952	0.909	0.811	0.736	1	–	–	–
COc1nc(C)cnc1NS(=O)(=O)c1cccnc1-c1ccc(-c2nnco2)cc1 [Zibotentan] + O=C(CCCCCCC(=O)Nc1ccccc1)NO [Vorinostat] (partner 1 µM)	0.304	0.305	0.338	0.209	–	0.778	0.799	0.794	0.711	–	0.682	0.584	0.657	0.69	–	0.801	0.842	0.722	0.839	–	0.904	0.756	0.781	0.99	–	0.981	0.9	0.939	–	0.331	0.54	–	0.928	0.887	1.03	0.946	–	0.881	0.574	0.483
